The subject of one experiment is BT474 xenograft. Nature of the experiment: Tumour growth inhibition, BT474 xenograft model. The experiment is classed as in vivo, mouse. The procedure:
BT474 is an estrogen receptor positive breast tumour cell lines with elevated Her2 expression and carries a mutation in the PIK3CA gene (K111N). Female Swiss athymic nude mice (swiss nu/nu-AZUK) were transplanted subcutaneously with human epithelial breast ductal carcinoma cell line BT474c (derived in AZ from BT474-ATCC HTB-20) tumours passaged in mice. Mice were implanted with 0.36 mg 60 day oestrogen pellet (Innovative Research of America) 24 hours prior to cell implantation. 5×10^6 cells in 50% matrigel (BD Bioscience) were injected s.c. on the left flank of the animals.
(§1) Animals were randomised into groups of 10-15 when tumours reached a volume of ˜200-300 mm^3 and treatment commenced. Animals were dosed for 3-4 weeks by peroral route, with compound in a suitable vehicle at defined doses and schedules. Tumours were measured two-three times weekly by caliper and volume of tumours calculated using elliptical formula (pi/6×width×width×length).

The next experiment addresses PI3K-δ (Homo sapiens (Human), UniProt O00329). Nature of the experiment: In vitro enzyme inhibition assay (Kinase Glo). The experiment is classed as biochemical. The settings on record: Test protocol a; mean of replicates. The procedure:
(§2) The inhibition of PI3K-β, PI3K-α, PI3K-γ and PI3K-δ was evaluated in a Kinase Glo based enzyme activity assay using human recombinant enzymes. The assay platform indirectly measured the depletion of ATP after incubation with enzyme, PIP2 substrate, ATP and compound.
(§3) After completion of the enzyme reaction the remaining ATP was used in a secondary enzymatic reaction, where Luciferase converted beetle luciferin into oxyluciferin under the emission of light. A direct relationship existed between the luminescence measured and the ATP remaining in a completed kinase reaction. Therefore, the luminescence was inversely related to the kinase activity.
(§4) Compounds in 100% DMSO were added to assay plates by acoustic dispensing. PI3K enzyme was added in a Tris buffer (50 mM Tris pH7.4, 0.05% CHAPS, 2.1 mM DTT, and 10 mM magnesium chloride) and allowed to preincubate with compound for 20 minutes prior to addition of substrate solution containing PIP2 and ATP. The enzyme reaction was stopped after 80 minutes by the addition of Kinase Glo detection solution containing Lucferin and Luciferase (from Kinase Glo® Plus Luminecent Kinase Assay kit (Promega #V3772). Plates were left for 30 minutes at room temperature then read on a Pherastar Instrument with a standard Luminescence filter block. The final concentration of DMSO, ATP and PIP2 in the assay were, 1%, 8 μM, and 80 μM respectively.
(§5) IC50 values were calculated using a log curve fitting to a non-linear regression fit.

The next experiment addresses PI3K-β (Homo sapiens (Human), UniProt P42338). Put plainly: In vitro enzyme inhibition assay (Kinase Glo). The following applies: Test protocol a; mean of replicates. The experiment is classed as biochemical. The procedure: as §2, §3, §4, §5
A further experiment concerns the target ATR kinase (Homo sapiens (Human), UniProt Q13535). Nature of the experiment: Phospho Chk1 (Ser345) in HT29 cells (ATR cell assay). The settings on record: Test protocol f, one test replicate only. The experiment is classed as cell-based. An excerpt: ATR (Ataxia Telangiectasia+Rad3-related kinase) is a PI3-kinase-related kinase which phosphorylates multiple substrates on serine or threonine residues in response to DNA damage or replication blocks. Chk1, a downstream protein kinase of ATR, plays a key role in DNA damage checkpoint control. Activation of Chk1 involves phosphorylation of Ser317 and Ser345 (the latter regarded as the preferential target for phosphorylation/activation by ATR).
This was a cell based assay to measure inhibition of ATR kinase, by measuring a decrease in phosphorylation of Chk1 (Ser 345) in HT29 cells, following treatment with compound and the UV mimetic 4NQO (Sigma #N8141). HT29 cells (ECACC #85061109) were seeded into 384 well assay plates (Costar #3712) at a density of 6000 cells/well in 40 μl EMEM medium containing 1% L glutamine and 10% FBS and allowed to adhere overnight. The following morning compounds in 100% DMSO were added to assay plates by acoustic dispensing. After 1 hour incubation at 37° C. and 5% CO2, 40 nl of 3 mM 4NQO in 100% DMSO was added to all wells by acoustic dispensing, except minimum control wells which were left untreated with 4NQO to generate a null response control. Plates were returned to the incubator for a further 1 hour. Then cells were fixed by adding 20 μl of 3.7% formaldehyde in PBS solution and incubating for 20 mins at room temperature. Then 20 μl of 0.1% Triton X100 in PBS was added and incubated for 10 minutes at room temperature, to permeabalise cells. Then the plates were washed once with 50 μl/well PBS, using a Biotek EL405 plate washer.
Phospho-Chk1 Ser 345 antibody (Cell Signalling Technology #2348) was diluted 150 fold in PBS containing 0.05% polysorbate/Tween and 15 μl was added to each well and incubated over night at room temperature. The next morning plates were washed three times with 50 μl/well PBS, using a Biotek EL405 plate washer, and then 20 μl of secondary Ab solution, containing 500 fold diluted Alexa Fluor 488 Goat anti-rabbit IgG (Molecular Probes #A-11008) and 0.002 mg/ml Hoeschst dye (Molecular Probes #H-3570), in PBST, was added. After 2 hours incubation at room temperature, the plates were washed three times with 50 μl/well PBS, using a Biotek EL405 plate washer, and plates were then sealed with black plate seals until read. Plates were read using an ArrayScan VTI instrument, using an XF53 filter with 10× objective. A two laser set up was used to analyse nuclear staining with Hoeschst (405 nM) and secondary antibody staining of pChk1 (488 nM).

Another experiment relates to MCF7 xenograft. Nature of the experiment: Tumour growth inhibition, MCF7 xenograft model. The experiment is classed as in vivo, mouse. The following applies: olaparib alone 100 mg/kg QD every day; FIG. 12. Here is the method: MCF7 is an estrogen receptor positive breast tumour cell line carrying a mutation in the PIKC3CA gene (E545K). […] SCID mice (AZ UK) were transplanted subcutaneously (s.c.) with human breast adenocarcinoma cell line MCF7 (ICRF London) to determine anti-tumour activity of PI3 kinase inhibitors. Mice were implanted with a 0.5 mg 21 day oestrogen pellet (Innovative Research of America) 24 hours prior to cell implantation. 5×10^6 cells in 50% matrigel (BD Bioscience) were injected s.c. on the left flank of the animals.
as §1

Experiment [1] addresses PI3K-α (Homo sapiens (Human), UniProt P42336, K111N). Nature of the experiment: Phosphorylated AKT (Thr308) in BT474 cells (PI3K-α cell assay). The settings on record: Test protocol c, mean of replicates. The experiment is classed as cell-based.
In experiment [2] the target is PI3K-α (Homo sapiens (Human), UniProt P42336). Nature of the experiment: In vitro enzyme inhibition assay (Kinase Glo). The experiment is classed as biochemical. The settings on record: Test protocol a; mean of replicates. The procedure: as §2, §3, §4, §5
The next experiment has as its system HCC70 xenograft. Nature of the experiment: Tumour growth inhibition, HCC70 xenograft model. The experiment is classed as in vivo, mouse. The following applies: AZD8186 alone 50 mg/kg BID every day; FIG. 13. The procedure:
HCC70 is breast tumour cell line which is deficient in PTEN gene expression. Female Swiss athymic nude mice (swiss nu/nu—AZUK) were transplanted subcutaneously with the breast ductal epithelial tumour cell line HCC70 (ATCC—CRL2315) cells. 1×10^6 cells in 50% matrigel (BD Bioscience) were injected s.c. on the left flank of the animals.
as §1

pIC50: −log10 of the molar value.

Sequence of PI3K-δ (O00329 whole entry): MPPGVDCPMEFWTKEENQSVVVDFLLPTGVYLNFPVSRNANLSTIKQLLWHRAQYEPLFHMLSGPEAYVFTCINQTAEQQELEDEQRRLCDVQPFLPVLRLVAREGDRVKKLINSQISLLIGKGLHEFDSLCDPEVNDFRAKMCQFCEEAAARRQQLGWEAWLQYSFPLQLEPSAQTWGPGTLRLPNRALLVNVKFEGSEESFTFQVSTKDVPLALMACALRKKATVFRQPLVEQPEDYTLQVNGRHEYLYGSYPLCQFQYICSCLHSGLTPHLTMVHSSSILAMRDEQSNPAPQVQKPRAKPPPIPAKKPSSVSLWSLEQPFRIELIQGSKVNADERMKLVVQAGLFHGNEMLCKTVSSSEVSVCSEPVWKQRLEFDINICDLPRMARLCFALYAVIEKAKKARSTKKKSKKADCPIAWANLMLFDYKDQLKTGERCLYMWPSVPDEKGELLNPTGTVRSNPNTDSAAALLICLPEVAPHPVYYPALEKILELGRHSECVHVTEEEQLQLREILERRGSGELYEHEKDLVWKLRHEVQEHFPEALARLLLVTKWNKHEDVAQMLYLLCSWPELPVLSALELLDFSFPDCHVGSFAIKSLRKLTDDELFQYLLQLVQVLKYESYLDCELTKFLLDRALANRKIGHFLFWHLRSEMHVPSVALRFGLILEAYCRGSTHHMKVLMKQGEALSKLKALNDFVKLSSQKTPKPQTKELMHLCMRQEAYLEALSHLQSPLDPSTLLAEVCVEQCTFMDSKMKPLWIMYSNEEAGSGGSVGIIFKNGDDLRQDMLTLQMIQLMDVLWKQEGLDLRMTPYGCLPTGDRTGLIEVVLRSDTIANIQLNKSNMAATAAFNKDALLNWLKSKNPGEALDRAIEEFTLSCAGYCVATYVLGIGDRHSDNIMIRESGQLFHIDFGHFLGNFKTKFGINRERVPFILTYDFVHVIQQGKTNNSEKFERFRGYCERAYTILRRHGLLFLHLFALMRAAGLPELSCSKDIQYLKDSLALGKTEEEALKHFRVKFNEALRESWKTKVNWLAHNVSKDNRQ
Sequence of PI3K-δ (P27986 whole entry partner): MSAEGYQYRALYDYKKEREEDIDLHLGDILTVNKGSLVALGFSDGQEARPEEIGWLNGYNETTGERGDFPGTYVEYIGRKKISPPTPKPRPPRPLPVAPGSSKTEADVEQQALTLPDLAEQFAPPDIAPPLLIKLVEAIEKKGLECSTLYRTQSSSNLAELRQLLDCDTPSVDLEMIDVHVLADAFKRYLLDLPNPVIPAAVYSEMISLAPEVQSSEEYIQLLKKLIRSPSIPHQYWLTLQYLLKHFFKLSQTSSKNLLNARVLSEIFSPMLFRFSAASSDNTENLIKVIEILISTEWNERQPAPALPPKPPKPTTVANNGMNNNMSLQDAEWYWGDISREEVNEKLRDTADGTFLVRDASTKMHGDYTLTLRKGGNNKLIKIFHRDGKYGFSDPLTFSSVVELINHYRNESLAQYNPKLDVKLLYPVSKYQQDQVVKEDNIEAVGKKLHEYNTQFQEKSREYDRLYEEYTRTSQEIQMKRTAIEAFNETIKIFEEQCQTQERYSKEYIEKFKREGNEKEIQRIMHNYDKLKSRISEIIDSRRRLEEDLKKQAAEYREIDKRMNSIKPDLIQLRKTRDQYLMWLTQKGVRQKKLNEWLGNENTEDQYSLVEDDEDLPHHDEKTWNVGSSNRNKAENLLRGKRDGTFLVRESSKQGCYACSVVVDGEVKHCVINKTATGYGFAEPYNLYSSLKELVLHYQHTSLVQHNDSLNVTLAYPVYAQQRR
Sequence of PI3K-β (P42338 whole entry): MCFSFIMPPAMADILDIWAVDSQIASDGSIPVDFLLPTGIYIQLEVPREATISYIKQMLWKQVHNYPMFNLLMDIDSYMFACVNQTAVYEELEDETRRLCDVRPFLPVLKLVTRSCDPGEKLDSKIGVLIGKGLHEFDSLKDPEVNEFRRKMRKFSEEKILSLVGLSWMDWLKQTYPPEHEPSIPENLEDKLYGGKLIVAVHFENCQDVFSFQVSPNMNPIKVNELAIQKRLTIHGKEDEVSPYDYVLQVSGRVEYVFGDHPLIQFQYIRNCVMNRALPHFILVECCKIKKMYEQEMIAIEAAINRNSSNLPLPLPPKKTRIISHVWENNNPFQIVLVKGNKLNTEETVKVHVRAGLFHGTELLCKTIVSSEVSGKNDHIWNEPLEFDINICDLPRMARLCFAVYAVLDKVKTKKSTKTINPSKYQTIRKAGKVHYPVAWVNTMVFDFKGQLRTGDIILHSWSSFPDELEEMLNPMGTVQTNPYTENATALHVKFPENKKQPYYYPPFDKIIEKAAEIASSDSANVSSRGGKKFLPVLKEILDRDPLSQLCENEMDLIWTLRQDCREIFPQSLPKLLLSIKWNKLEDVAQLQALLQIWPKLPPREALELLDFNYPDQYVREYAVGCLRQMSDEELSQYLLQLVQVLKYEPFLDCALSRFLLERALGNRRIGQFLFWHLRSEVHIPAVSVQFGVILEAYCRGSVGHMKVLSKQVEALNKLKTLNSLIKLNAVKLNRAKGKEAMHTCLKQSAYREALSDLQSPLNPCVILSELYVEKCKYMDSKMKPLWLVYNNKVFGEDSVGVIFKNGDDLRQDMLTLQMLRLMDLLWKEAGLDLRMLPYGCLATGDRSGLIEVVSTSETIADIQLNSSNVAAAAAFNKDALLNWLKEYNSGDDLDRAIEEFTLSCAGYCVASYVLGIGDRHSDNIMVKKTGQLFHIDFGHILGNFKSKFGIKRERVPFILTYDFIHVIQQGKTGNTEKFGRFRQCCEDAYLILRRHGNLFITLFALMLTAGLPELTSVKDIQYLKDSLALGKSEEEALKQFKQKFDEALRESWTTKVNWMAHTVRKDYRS
Sequence of PI3K-β (P27986 whole entry partner): as the sequence (P27986 whole entry partner) above
Sequence of PI3K-α (Homo sapiens (Human), UniProt P42336, K111N) (P42336 whole entry K111N, looked up): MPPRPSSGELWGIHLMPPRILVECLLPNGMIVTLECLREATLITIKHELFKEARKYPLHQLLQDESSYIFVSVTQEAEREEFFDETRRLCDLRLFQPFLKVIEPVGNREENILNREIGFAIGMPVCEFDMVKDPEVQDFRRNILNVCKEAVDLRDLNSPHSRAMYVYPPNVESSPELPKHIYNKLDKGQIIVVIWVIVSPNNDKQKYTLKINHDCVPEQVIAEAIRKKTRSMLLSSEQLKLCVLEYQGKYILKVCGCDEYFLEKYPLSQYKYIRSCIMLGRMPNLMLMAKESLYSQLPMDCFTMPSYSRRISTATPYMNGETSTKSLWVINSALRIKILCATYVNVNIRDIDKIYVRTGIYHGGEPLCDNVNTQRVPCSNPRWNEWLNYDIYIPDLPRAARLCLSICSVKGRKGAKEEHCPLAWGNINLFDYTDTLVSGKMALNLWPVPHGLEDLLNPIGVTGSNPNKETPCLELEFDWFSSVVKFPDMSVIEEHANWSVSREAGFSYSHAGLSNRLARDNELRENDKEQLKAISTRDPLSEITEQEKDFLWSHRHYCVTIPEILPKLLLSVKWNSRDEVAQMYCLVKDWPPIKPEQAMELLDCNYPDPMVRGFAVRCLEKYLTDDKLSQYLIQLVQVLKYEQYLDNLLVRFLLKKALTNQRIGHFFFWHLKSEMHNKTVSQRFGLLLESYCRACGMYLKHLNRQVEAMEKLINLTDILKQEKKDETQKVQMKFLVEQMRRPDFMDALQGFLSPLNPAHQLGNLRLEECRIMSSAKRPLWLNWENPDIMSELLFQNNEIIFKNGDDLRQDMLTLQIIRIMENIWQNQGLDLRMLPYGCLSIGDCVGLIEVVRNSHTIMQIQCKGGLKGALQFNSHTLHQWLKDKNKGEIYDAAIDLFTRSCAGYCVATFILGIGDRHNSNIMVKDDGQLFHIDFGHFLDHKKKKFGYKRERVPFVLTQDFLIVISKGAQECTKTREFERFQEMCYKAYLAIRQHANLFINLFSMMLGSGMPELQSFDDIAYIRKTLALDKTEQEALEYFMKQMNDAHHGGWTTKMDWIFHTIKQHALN
Sequence of PI3K-α (Homo sapiens (Human), UniProt P42336, K111N) (P27986 whole entry partner, looked up): as the sequence (P27986 whole entry partner) above
Sequence of PI3K-α (Homo sapiens (Human), UniProt P42336) (P42336 whole entry, looked up): as the sequence (P42336 whole entry K111N, looked up) above, with N111K counted along it
Sequence of PI3K-α (Homo sapiens (Human), UniProt P42336) (P27986 whole entry partner, looked up): as the sequence (P27986 whole entry partner) above

Take `NC1(C(=O)N[C@@H](CCO)c2ccc(Cl)cc2)CCN(c2ncnc3[nH]ccc23)CC1` [AZD5363, (S)-4-amino-N-(1-(4-chlorophenyl)-3-hydroxypropyl)-1-(7H-pyrrolo[2,3-d]pyrimidin-4-yl)piperidine-4-carboxamide, reference compound]: the tumour growth result is recorded as “partially inhibited tumour growth” in the experiment on BT474 xenograft (AZD5363 alone 100 mg/kg BID, 2 days on/5 days off, vs vehicle, FIG. 10) and “partially inhibited tumour growth” with BT474 xenograft (AZD5363 alone 170 mg/kg BID, 2 days on/5 days off, vs vehicle, FIG. 9).
Consider `C[C@H](O)CC(=O)N1CCC(c2nc(-c3cnc(N)c(-c4nnc(C(C)(C)C)o4)n3)n(C)n2)CC1` [Example 5, (3S)-1-[4-[5-[5-amino-6-(5-tert-butyl-1,3,4-oxadiazol-2-yl)pyrazin-2-yl]-1-methyl-1,2,4-triazol-3-yl]-1-piperidyl]-3-hydroxy-butan-1-one], for which the negative logarithm of the IC50 (pIC50) against PI3K-δ is 7.92; against PI3K-β it was 5.48; against ATR kinase, under 4.52.
For the compound `O=C(c1cc(Cc2n[nH]c(=O)c3ccccc23)ccc1F)N1CCN(C(=O)C2CC2)CC1` [olaparib, 4-[3-(4-cyclopropanecarbonyl-piperazine-1-carbonyl)-4-fluoro-benzyl]-2H-phthalazin-1-one, reference compound], the tumour growth result in the experiment on BT474 xenograft (olaparib alone 100 mg/kg QD every day, FIG. 11) is listed as “no significant effect on tumour growth”; in the experiment with MCF7 xenograft, “minimal effect on tumour growth”.
The compound `CCn1nc(C2CCN(C(=O)[C@@H](O)CO)CC2)nc1-c1cnc(N)c(-c2nnc(C(C)(C)C)o2)n1` [Example 10, (2S)-1-[4-[5-[5-amino-6-(5-tert-butyl-1,3,4-oxadiazol-2-yl)pyrazin-2-yl]-1-ethyl-1,2,4-triazol-3-yl]-1-piperidyl]-2,3-dihydroxy-propan-1-one] had a pIC50 against PI3K-α [1] of 7.07.
`Cn1nc(C2CCN(C(=O)CC(=O)O)CC2)nc1-c1cnc(N)c(-c2nnc(C(C)(C)C)o2)n1` [Example 8, 3-[4-[5-[5-amino-6-(5-tert-butyl-1,3,4-oxadiazol-2-yl)pyrazin-2-yl]-1-methyl-1,2,4-triazol-3-yl]-1-piperidyl]-3-oxo-propanoic acid]: the negative logarithm of the IC50 (pIC50) is 7.62 against PI3K-α [2]; 7.92 on PI3K-δ; 5.82 on PI3K-β; 6.23 on PI3K-α [1]; under 4.52 against ATR kinase.
As to `C[C@@H](O)CC(=O)N1CCC(c2nc(-c3cnc(N)c(-c4nnc(C(C)(C)C)o4)n3)n(C)n2)CC1` [Example 4, (3R)-1-[4-[5-[5-amino-6-(5-tert-butyl-1,3,4-oxadiazol-2-yl)pyrazin-2-yl]-1-methyl-1,2,4-triazol-3-yl]-1-piperidyl]-3-hydroxy-butan-1-one], the pIC50 against PI3K-δ was over 7.92; on PI3K-β, 5.54; at ATR kinase, under 4.52.
As for `C[C@@H](Nc1cc(F)cc(F)c1)c1cc(C(=O)N(C)C)cc2c(=O)cc(N3CCOCC3)oc12` [AZD8186, 8-((1R)-1-(3,5-difluorophenylamino)ethyl)-N,N-dimethyl-2-morpholino-4-oxo-4H-chromene-6-carboxamide, reference compound], the tumour growth result in the experiment with HCC70 xenograft is listed as “partially inhibited tumour growth”.
`CCn1nc(C2CCN(C(=O)CC(=O)O)CC2)nc1-c1cnc(N)c(-c2nnc(C(C)(C)C)o2)n1` [Example 9, 3-[4-[5-[5-amino-6-(5-tert-butyl-1,3,4-oxadiazol-2-yl)pyrazin-2-yl]-1-ethyl-1,2,4-triazol-3-yl]-1-piperidyl]-3-oxo-propanoic acid]: the negative logarithm of the IC50 (pIC50) is over 8.00 against PI3K-δ and 6.19 against PI3K-β.
Turning to `C[C@H](CO)C(=O)N1CCC(c2nc(-c3cnc(N)c(-c4nnc(C(C)(C)C)o4)n3)n(C)n2)CC1` [Example 6, (2R)-1-[4-[5-[5-amino-6-(5-tert-butyl-1,3,4-oxadiazol-2-yl)pyrazin-2-yl]-1-methyl-1,2,4-triazol-3-yl]-1-piperidyl]-3-hydroxy-2-methyl-propan-1-one], the negative-log IC50 (pIC50) on PI3K-δ was over 7.92; on PI3K-β, 5.47; on ATR kinase it was under 4.52.
Take `Cn1nc(C2CCN(C(=O)C(C)(C)O)CC2)nc1-c1cnc(N)c(-c2nnc(C(C)(C)C)o2)n1` [Example 7, 1-[4-[5-[5-amino-6-(5-tert-butyl-1,3,4-oxadiazol-2-yl)pyrazin-2-yl]-1-methyl-1,2,4-triazol-3-yl]-1-piperidyl]-2-hydroxy-2-methyl-propan-1-one]: the pIC50 is 7.43 at PI3K-α [2]; 7.85 against PI3K-δ; 5.20 against PI3K-β; 6.38 against PI3K-α [1]; under 4.52 at ATR kinase.
On to `CCn1nc(C2CCN(C(=O)[C@H](O)CO)CC2)nc1-c1cnc(N)c(-c2nnc(C(C)(C)C)o2)n1` [Example 11, (2R)-1-[4-[5-[5-amino-6-(5-tert-butyl-1,3,4-oxadiazol-2-yl)pyrazin-2-yl]-1-ethyl-1,2,4-triazol-3-yl]-1-piperidyl]-2,3-dihydroxy-propan-1-one], for which, at PI3K-α [1], the negative logarithm of the IC50 (pIC50) was 6.96.

Source of the values: patent US9156831B2, “Chemical compounds” (ASTRAZENECA AB, priority 2013, dated 2015).
